The target of the test is RORc ligand binding domain (Homo sapiens (Human), UniProt P51449).

The values below come from patent US8912219B2, “Aryl sulfamide and sulfamate derivatives as RORc modulators” (Genentech, Inc., priority 2013, dated 2014).

In general, IC50 refers to the point on the concentration scale where inhibition reaches its midpoint.

Chain of RORc ligand binding domain (P51449 269-508): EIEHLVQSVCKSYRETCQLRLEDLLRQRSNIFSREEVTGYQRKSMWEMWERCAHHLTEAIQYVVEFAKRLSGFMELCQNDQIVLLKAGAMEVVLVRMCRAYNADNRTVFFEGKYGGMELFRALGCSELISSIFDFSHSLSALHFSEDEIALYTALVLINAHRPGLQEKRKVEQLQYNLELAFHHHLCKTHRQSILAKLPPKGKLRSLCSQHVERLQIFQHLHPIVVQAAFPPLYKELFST

Take `CC(=O)N1CCN(c2ccc(CN(C3CCC3)S(=O)(=O)N(C)c3ccccc3)c(F)c2)CC1` [Compound 2, 1-(4-(4-acetylpiperazin-1-yl)-2-fluorobenzyl)-1-cyclobutyl-3-methyl-3-phenyl-sulfonamide]: the IC50 came out at 28 nM. The same measure for `CC(C)CN(Cc1ccc(F)cc1)S(=O)(=O)Nc1ccc(OC2CCN(S(C)(=O)=O)CC2)cc1` [Compound 4, 1-(4-fluorobenzyl)-1-isobutyl-3-(4-((1-(methylsulfonyl)piperidin-4-yl)oxy)phenyl)-sulfamide]: 230 nM; for `CS(=O)(=O)N1CCC(Oc2ccc(N3CCN(Cc4ccc(F)cc4)S3(=O)=O)cc2)CC1` [Compound 3, 2-(4-fluorobenzyl)-5-(4-((1-(methylsulfonyl)piperidin-4-yl)oxy)phenyl)-1,2,5-thiadiazolidine 1,1-dioxide]: 6420 nM. Under `CC(=O)N1CCN(c2ccc(CN(C3CCC3)S(=O)(=O)Oc3ccccc3)c(F)c2)CC1` [Compound 10, phenyl 4-(4-acetylpiperazin-1-yl)-2-fluorobenzyl(cyclobutyl)sulfamate] stands 7 nM.
